Six compounds from ChEMBL document CHEMBL3045509, “Oxadiazolo pyrrolidine carboxamides as enoyl-ACP reductase inhibitors: design, synthesis and antitubercular activity screening” (2013) can be followed below.

≈ marks a conversion by molar mass, not a printed value.

The test relates to Mycobacterium tuberculosis. Kind of test: Antitubercular activity against Mycobacterium tuberculosis H37Rv MTCC 300 after 7 days by Alamar blue assay. The test is classed as functional. The note with it: H37Rv MTCC 300, 168 h. On the technique in general: Alamar Blue is a resazurin reagent that responds to reducing activity.

As a reminder, the MIC is the least concentration at which growth counts as inhibited. Regarding `O=C(Nc1nnc(-c2ccc([N+](=O)[O-])cc2)o1)C1CC(=O)N(c2ccccc2)C1` (stereo unspecified), the lowest concentration to inhibit growth (MIC) was 25 µg/mL (≈ 63.6 µM).
As to `COc1ccc(-c2nnc(NC(=O)C3CC(=O)N(c4ccccc4)C3)o2)cc1` (stereo unspecified), it took 3.12 µg/mL (≈ 8.26 µM) to inhibit growth (MIC). This MIC is about 8-fold lower than that of the compound before.
`Cc1ccc(-c2nnc(NC(=O)C3CC(=O)N(c4ccccc4)C3)o2)cc1` (stereo unspecified) yielded an MIC of 50 µg/mL (≈ 138 µM).
`O=C(Nc1nnc(-c2ccc(Cl)cc2)o1)C1CC(=O)N(c2ccccc2)C1` (stereo unspecified) registered a minimum inhibitory concentration (MIC) of 25 µg/mL (≈ 65.3 µM).
Compound `O=C(Nc1nnc(-c2ccccc2)o1)C1CC(=O)N(c2ccccc2)C1` (stereo unspecified) returned an MIC of 12.5 µg/mL (≈ 35.9 µM).
`NNC(=O)c1ccncc1` [ISONIAZID] returned an MIC of 0.25 µg/mL (≈ 1.82 µM).
